Data: article PMC10439028, “SGLT5 is the renal transporter for 1,5-anhydroglucitol, a major player in two rare forms of neutropenia” (Cellular and Molecular Life Sciences: CMLS, 2023)
Like-named read-outs stand apart in the source and are kept apart here.

Columns and labels:
human SGLT5 = target: T1, human SGLT5 (Homo sapiens, UniProt A0PJK1); assay: Inhibition of 10 µM radiolabelled 1,5-AG transport in HEK293T cells overexpressing human SGLT5; type: cell-based
T1 construct: expressed in transfected cells
T1 sequence (A0PJK1 1-596): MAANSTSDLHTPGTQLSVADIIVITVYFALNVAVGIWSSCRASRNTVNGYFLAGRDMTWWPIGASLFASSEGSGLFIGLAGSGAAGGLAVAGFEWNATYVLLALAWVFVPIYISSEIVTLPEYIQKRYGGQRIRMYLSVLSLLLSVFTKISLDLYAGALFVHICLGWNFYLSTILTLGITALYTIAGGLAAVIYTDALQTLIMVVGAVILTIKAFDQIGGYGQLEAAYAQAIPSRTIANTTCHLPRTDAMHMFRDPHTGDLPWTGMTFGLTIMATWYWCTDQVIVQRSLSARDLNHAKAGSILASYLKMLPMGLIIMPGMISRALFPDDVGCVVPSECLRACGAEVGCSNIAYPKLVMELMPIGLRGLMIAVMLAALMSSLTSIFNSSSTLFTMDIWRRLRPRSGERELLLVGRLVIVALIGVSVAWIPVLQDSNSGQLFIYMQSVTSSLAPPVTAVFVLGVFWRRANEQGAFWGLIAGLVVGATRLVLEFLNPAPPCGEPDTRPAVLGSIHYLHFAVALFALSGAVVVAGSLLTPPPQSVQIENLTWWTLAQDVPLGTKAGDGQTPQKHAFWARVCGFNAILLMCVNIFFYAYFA
Experimental: (§1) For a typical transporter experiment we proceeded as follows. […] To minimize cell loss during the various washing steps in the radioactive uptake experiments, the wells where the cells were seeded were previously coated with poly- D-lysine, which improved their adhesion to the plastic surface of the wells. For this, each well of the 24-well plates was treated with 200 µl of a 0.01% poly-L-lysine solution for 10 min, washed 3 times with 1 ml of sterilized water and left to dry for 2 h. Only then could the 24-well plates be seeded with the appropriate cell lines and cultured overnight at 37 °C in 5% CO2.
(§2) On day two, the radioactive uptake assay could be performed. The cell culture media was removed by aspiration and cells were incubated for 20 min at 37 °C and 5% CO2 with a basal medium (10 mM HEPES, pH 7.4, 1 mM CaCl2, 1 mM MgCl2, 2 mM KCl) containing 140 mM choline chloride to deplete intracellular […] ions. This was subsequently replaced with the uptake medium (basal medium + 140 mM NaCl, 25 μM cytochalasin B, 1 mg/ml BSA) containing either radioactive U-[^14C]-mannose (15,000 cpm/well) or 2-[^3H]-1,5-AG (30,000 cpm/well) and respectively, non-radioactive mannose or 1,5-AG, at the required concentration in the experiment. Importantly, when measuring the transport of mannose, the uptake media also contained 0.5 mM glucose. This resulted from the need to reduce the background transport of mannose in control HEK293T cells in order to optimize the transport assay for this sugar in our model cell lines. Consequently, after testing various inhibitors (Supplementary Fig. 1), 0.5 mM glucose + 25 µM cytochalasin B appeared as the best combination to decrease efficiently the endogenous transport of mannose in control cells without affecting the transport of mannose in model cell lines overexpressing SGLT4 and SGLT5. Therefore in the radioactive uptake assays for mannose, the uptake medium was: basal uptake medium + 140 mM NaCl, 25 μM cytochalasin B, 0.5 mM glucose and 1 mg/ml BSA to which we added U-[^12C + ^14C]-mannose as described above.
(§3) Once the uptake medium was added to the cells, the plates were incubated at 37 °C in 5% CO2 during the required time. […] In each experiment, the transport activities were calculated after subtracting a “blank” value, corresponding to the radioactivity in the appropriate control cells (HEK293T cells that were stably or transiently transfected with one of the parent plasmids pEF6/MycHisA, pEF6HisB, pUB82 or pUB83 with no inserted cDNA) that were analyzed in parallel.
(§4) The transport experiments to study the specificity of SGLT4 or SGLT5, were performed in the presence of 10 µM U-[^14C + ^12C]-mannose (for SGLT4) or 2-[^3H + ^1H]-1,5-AG (for SGLT5) and increasing concentrations of various sugars tested. The transport experiments to study the inhibition of empagliflozin, dapagliflozin or remogliflozin, on the transport of 1,5-AG by SGLT5 or its variants were performed in the presence of 10 µM 2-[^3H + ^1H]-1,5-AG and increasing concentrations of the various gliflozins tested.

human SGLT4 = target: T2, human SGLT4 (Homo sapiens, UniProt Q2M3M2); assay: Inhibition of 10 µM radiolabelled mannose transport in HEK293T cells overexpressing human SGLT4; type: cell-based; conditions: substrate 10 μM mannose
T2 construct: expressed in transfected cells
T2 sequence (Q2M3M2 1-681): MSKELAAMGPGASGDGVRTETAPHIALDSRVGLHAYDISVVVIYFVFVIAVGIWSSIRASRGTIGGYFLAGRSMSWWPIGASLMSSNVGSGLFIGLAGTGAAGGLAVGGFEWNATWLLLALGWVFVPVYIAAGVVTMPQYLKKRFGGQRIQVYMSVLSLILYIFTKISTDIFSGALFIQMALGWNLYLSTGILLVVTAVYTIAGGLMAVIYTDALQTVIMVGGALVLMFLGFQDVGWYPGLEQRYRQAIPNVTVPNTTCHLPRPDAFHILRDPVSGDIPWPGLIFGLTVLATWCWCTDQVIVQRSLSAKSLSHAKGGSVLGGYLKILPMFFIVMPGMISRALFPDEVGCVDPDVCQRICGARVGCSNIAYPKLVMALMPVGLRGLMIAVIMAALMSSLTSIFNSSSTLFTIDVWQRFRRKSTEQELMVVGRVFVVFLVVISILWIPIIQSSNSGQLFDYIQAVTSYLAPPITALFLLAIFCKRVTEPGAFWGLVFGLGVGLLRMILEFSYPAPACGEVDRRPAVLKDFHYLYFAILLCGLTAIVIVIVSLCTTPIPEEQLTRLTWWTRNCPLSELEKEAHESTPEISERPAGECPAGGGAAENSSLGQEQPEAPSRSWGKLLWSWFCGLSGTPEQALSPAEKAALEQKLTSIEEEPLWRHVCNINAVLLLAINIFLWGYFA
Experimental: as §1, §2, §3, §4

[1] = substrate 10 μM 1,5-AG, unlabelled sugars, Fig. 3C, read-out: hSGLT5 IC50

For OC[C@H]1OC[C@H](O)[C@@H](O)[C@@H]1O [1,5-AG, 1,5-anhydroglucitol], the IC50 (human SGLT5; 10 µM 2-[1H+3H]-1,5-AG, Supplementary Fig. 7, read-out: IC50 for 1,5-AG, SGLT5-WT) was 162 µM, the “preference of 1,5-AG over glucose, difference in Ki” value (human SGLT5; SGLT5) was 20 fold and the IC50 (human SGLT5; [1]) was 167 µM. For the same compound, the “hSGLT4 inhibition with 10 mM inhibitor” value (human SGLT4; 10 mM inhibitor) was “no inhibition”.
For OC[C@H]1OC(O)[C@@H](O)[C@@H](O)[C@@H]1O (stereo partly shown) [Mannose, mannose], the IC50 (human SGLT5; [1]) was 380 µM and the IC50 (human SGLT4; Fig. 3C, read-out: hSGLT4 IC50) was 125 µM.
Compound OC[C@H]1O[C@@H](c2ccc(Cl)c(Cc3ccc(O[C@H]4CCOC4)cc3)c2)[C@H](O)[C@@H](O)[C@@H]1O [empagliflozin] has an IC50 (human SGLT5; 10 µM 2-[1H+3H]-1,5-AG, Fig. 5C, read-out: IC50 for SGLT5-mediated 1,5-AG transport (gliflozins)) of 0.7 µM.
